# System: CD4+CD25+FoxP3+ regulatory T cells and CD8+ T cells
# Assay: Flow cytometry of CD8+ T cell and Treg subsets during an immunochemotherapy cycle
# Type: in vivo, human
# Settings: day 12 of temozolomide cycle (5/21 schedule), vaccine on day 19
# Excerpt: To characterize the response of the various T cell populations during a cycle of temozolomide (5/21 schedule) and concurrently administered vaccine (day 19 on this example), we obtained peripheral blood on days 0, 3, 5, 12, 19, 23, 25 and 26. By flow analysis cytometry, we investigated the percentage of the CD8+ T cell and CD4+CD25+FoxP3+ regulatory T cells subsets during an immunochemotherapy cycle. All fluorescence-conjugated monoclonal antibodies (mAb) (PerCP-Cy5.5-CD3, FITC-CD8, APC-CD4 and PE-CD25) were purchased from BD Biosciences except the FITC-labeled mAb of FoxP3 was made by eBioscience. The surface and intracellular staining of peripheral blood cells were performed according to the standard procedures provided by the manufacturer. Results were analyzed by FACSCalibur flow cytometer using Cellquest Pro software (BD Biosciences). In contrast to the decline of the CD8+ T cell subset, the Treg population started to increase after the administration of temozolomide for 3 days and reached its peak (0.9% of total CD4^+ T cells) on day 12. The Tregs then began to drop until day 23 while the CD8^+ T cell numbers started to recover. At the end of the course, both of CD8^+ T cell and Treg populations recovered to pre-treatment levels.
structure (smiles),measurement,value
Cn1nnc2c(C(N)=O)ncn2c1=O [temozolomide],Treg population peak,0.9 % of total CD4+ T cells

# From patent publication US9399662B2, “Concurrent chemotherapy and immunotherapy” (Duke University, priority 2005, dated 2016)
